# Starred links: 1 amine or outer side, 2 acyl side, 3 side chain; linkers in the order of their positions; H or OH if unused. Non-standard residues stand in square brackets, D forms with d. Residues, ends and D or L forms follow the SMILES beside them. X1 = CC(C)C[C@H](N[*:1])[C@@H](O)C[C@H](C(=O)[*:2])C(C)C
# Biological target: Human immunodeficiency virus type 1 protease (Human immunodeficiency virus 1, UniProt Q72874)
# Assay: Binding affinity against HIV-1 aspartic proteinase was determined
smiles,measurement,value
CCCC[C@@H](CN[C@@H](CCCC)C(=O)N[C@@H](CCC(N)=O)C(=O)N[C@@H](CCCNC(=N)N)C(N)=O)NC(=O)[C@@H](NC(=O)[C@@H](NC(C)=O)[C@@H](C)O)[C@@H](C)CC,Ki,780 nM
CC[C@H](C)[C@H](NC(=O)[C@@H](C[C@H](O)[C@H](CC(C)C)NC(=O)[C@H](CC(N)=O)NC(=O)[C@H](CCC(N)=O)NC(=O)[C@H](CO)NC(=O)[C@@H](N)C(C)C)C(C)C)C(=O)N[C@H](C(=O)O)C(C)C (H-VSQN[X1]IV-OH),Ki,< 1 nM

# From ChEMBL document CHEMBL1126747, “Multiple copy simultaneous search and construction of ligands in binding sites: application to inhibitors of HIV-1 aspartic proteinase” (J Med Chem, 1993)
